Data as given in publication PMC12417622 (Biopharmaceutics & Drug Disposition, 2025).
Like-named read-outs stand apart in the source and are kept apart here. Values belong to the molecule of their own block, whether it stands above or below them.

How the values were obtained:
hOAT3 [1] = biological target: T1, hOAT3 (Homo sapiens, UniProt Q8TCC7); test: Uptake of 6-CF in HEK-pBK and HEK-hOAT3 cells and its inhibition by probenecid; assay type: cell-based; set-up: expressed in transfected cells; host or cells: HEK293 (HEK-hOAT3), gift of Dr. Atsushi Yonezawa, Kyoto University Hospital; mock control HEK-pBK (pBKCMV vector); details: 5 μM 6-CF, 2 min, 37°C
T1 sequence (Q8TCC7 1-542): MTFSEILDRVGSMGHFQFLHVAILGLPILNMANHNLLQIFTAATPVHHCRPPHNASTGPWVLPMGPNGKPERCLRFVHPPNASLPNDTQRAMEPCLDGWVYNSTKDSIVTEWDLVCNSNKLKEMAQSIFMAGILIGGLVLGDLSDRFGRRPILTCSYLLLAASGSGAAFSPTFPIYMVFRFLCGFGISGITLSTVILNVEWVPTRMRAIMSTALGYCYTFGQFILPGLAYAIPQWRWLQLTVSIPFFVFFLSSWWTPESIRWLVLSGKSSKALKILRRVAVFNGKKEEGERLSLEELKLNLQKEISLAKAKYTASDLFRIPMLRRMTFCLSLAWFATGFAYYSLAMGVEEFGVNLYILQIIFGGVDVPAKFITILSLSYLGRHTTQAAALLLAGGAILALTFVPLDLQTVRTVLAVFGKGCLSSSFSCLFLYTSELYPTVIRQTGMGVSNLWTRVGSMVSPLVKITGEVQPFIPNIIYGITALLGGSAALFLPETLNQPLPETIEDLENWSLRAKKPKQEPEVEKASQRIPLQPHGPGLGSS
Experimental: The cells were incubated for 2 min at 37°C with 5 µM 6‐CF (pH 7.4) in the absence or presence of probenecid (100 µM).

[2] = Cmax of febuxostat after oral administration in human; assay type: in vivo; details: 40–120 mg febuxostat orally, estimated from Cmax and protein binding
[3] = set-up: method as in review report of febuxostat (Feburic Tablet); details: rats, 5 min after febuxostat 1 mg/kg i.v.; ref review report of febuxostat (Feburic Tablet); cited from earlier work
[4] = set-up: method as in Yu et al. [2023]; details: rats; ref Yu et al. [2023]; cited from earlier work
[5] = set-up: method as in Zhang et al. [2014]; details: human, 40–120 mg febuxostat orally; ref Zhang et al. [2014]; cited from earlier work
hOAT3 [6] = biological target: T1, hOAT3; test: Inhibition of hOAT3-mediated methotrexate transport by febuxostat in HEK-hOAT3 cells (inhibition plot, Dixon plot); assay type: cell-based; set-up: expressed in transfected cells; host or cells: HEK293 (HEK-hOAT3), gift of Dr. Atsushi Yonezawa, Kyoto University Hospital; mock control HEK-pBK (pBKCMV vector)
Experimental: (§1) The entire LC gradient was 16 min.

hOAT3 [7] = biological target: T1, hOAT3; set-up: expressed in transfected cells; host or cells: HEK293 (HEK-hOAT3), gift of Dr. Atsushi Yonezawa, Kyoto University Hospital; mock control HEK-pBK (pBKCMV vector); details: cited from earlier work; for Ki: read-out: Ki against hOAT3
[8] = Pharmacokinetics of methotrexate after intravenous administration with and without febuxostat in rats; assay type: in vivo, rat; details: for Vd / half-life / k el / AUC(0-t) / clearance: male, Wistar, rat, plasma, iv, 2 mg/kg, methotrexate 2 mg/kg i.v., mean ± S.D.; for Vd / half-life / k el: n = 4; for AUC(0-t): n = 4, read-out: AUC0–90 min (converted); for clearance: n = 4, read-out: CLtot
Description: Nine‐week‐old male Wistar rats (SLC Japan Co., Shizuoka, Japan) were used for the pharmacokinetics study. All animal procedures were approved by the Animal Experiments Committee of The University of Osaka (No. 03‐018‐000) and conducted in accordance with the Japanese Law for the Protection and Management of Animals, the Standards Relating to the Care and Management of Laboratory Animals and Relief of Pain, and other relevant regulations and guidelines for animal experimentation. The rats were anesthetized with an intraperitoneal injection of a mixture of medetomidine, midazolam, and butorphanol at doses of 0.38, 2.0, and 2.5 mg/kg, respectively. Polyethylene catheters were implanted into the femoral vein and femoral artery to administer the drug and facilitate frequent blood collection. […] The area under the plasma concentration–time curve from 0 to 90 min (AUC0–90 min) was calculated using the trapezoidal rule. Moreover, the systemic clearance (CLtot), elimination rate constant from the central compartment (Kel), distribution volume of the central compartment (Vd), and half‐life (T1/2) were calculated according to the procedures for 2‐compartmental analysis.
as §1

hOAT3 [9] = biological target: T1, hOAT3; details: 10 μM methotrexate, 2, 5, 10 and 15 min, 37°C, all time points
Experimental: These cells were cultured in complete medium consisting of Medium 199 (Life Technologies, Carlsbad, CA) supplemented with 10% fetal bovine serum containing G418 (0.5 mg/mL; FUJIFILM WAKO Pure Chemical) and were used between passage numbers 95 and 115. These cells were maintained at 37°C under 5% CO2 in a humidified atmosphere.
The cells (12 × 10^5 cells/dish) were seeded in 3.5 cm dishes with culture medium in the absence of G418. After 48 h of culture, cell monolayers were utilized for uptake study. […] The composition of the incubation medium was as follows: 145 mM NaCl, 3 mM KCl, 1 mM CaCl2, 0.5 mM MgCl2, 5 mM D‐glucose, and 5 mM HEPES (pH 7.4). […] To assess intracellular 6‐CF accumulation, the cells were solubilized in 1 N NaOH and fluorescence was measured using a fluorescence spectrophotometer (SH‐9000lab, CORONA, Ibaraki, Japan) at 495 nm excitation/517 nm emission. The protein content of the solubilized cells was measured using a BCA protein assay kit (Thermo Fisher Scientific, Waltham, MA).
The UPLC‐MS/MS system was applied with the ACQUITY HPLC H‐class/ACQUITY TQD system with electrospray ionization (Waters, Milford, MA). 10 μL of 100 ng/mL pemetrexed, utilized as an internal standard (IS), was added to the samples (100 μL). The samples (10 μL) were then subjected to UPLC‐MS/MS. […]

[10] = set-up: method as in Bleyer [1978]; details: within 30 h of administration; ref Bleyer [1978]; cited from earlier work
rOAT3 = system: rOAT3; set-up: method as in Nozaki et al. [2004]; details: rat kidney slices; ref Nozaki et al. [2004]; cited from earlier work
[11] = substrate: CN(Cc1cnc2nc(N)nc(N)c2n1)c1ccc(C(=O)N[C@@H](CCC(=O)O)C(=O)O)cc1; test: cells, lysate or membranes named; details: other: 2 min, 37°C, pH 7.4, uptake in HEK-pBK subtracted from HEK-hOAT3, mean ± S.E.
[12] = HEK-hOAT3 cells, estron-3-sulfate as substrate, ref Tang et al. [2022]

Molecule: CCCN(CCC)S(=O)(=O)c1ccc(C(=O)O)cc1 [probenecid]
Effect on uptake of 6-CF in HEK-hOAT3 cells (hOAT3 [1]; 100 μM probenecid): potently inhibited

Molecule: Cc1nc(-c2ccc(OCC(C)C)c(C#N)c2)sc1C(=O)O [febuxostat]
unbound Cmax (clinical concentration) [2]: 0.12 to 0.30 µM
plasma concentration of febuxostat [3]: approximately 24.1 μM
protein binding [4]: 98.4%
Cmax [5]: 5.3 to 13.5 µM
IC50 (hOAT3 [6]): 650 ± 130 nM
Ki (hOAT3 [6]): 630 ± 10 nM
inhibitory type against hOAT3-mediated transport of methotrexate (hOAT3 [6]; Dixon plot, HEK-hOAT3 cells): noncompetitive
ratio of unbound Cmax to Ki value (hOAT3 [6]; human unbound Cmax 0.12–0.30 μM, Ki against hOAT3 0.63 μM): 0.19–0.48
Ki (hOAT3 [7]; ref Tang et al. ([2022])): 0.55 ± 0.15 µM

Molecule: Cc1nc(-c2ccc(OCC(C)C)c(C#N)c2)sc1C(=O)O[C@@H]1O[C@H](C(=O)O)[C@@H](O)[C@H](O)[C@H]1O [febuxostat acyl‐β‐D‐glucuronide]
inhibitory type against hOAT3 (hOAT3 [7]; [12]): competitive
Ki (hOAT3 [7]; [12]): 6.11 µM

B1: hOAT3 (Homo sapiens) (protein)
chain: T1 sequence (Q8TCC7 1-542)
Km [11]: 46.4 ± 9.2 µM
Vmax [11]: 287 ± 26 pmol/mg protein/min

More lines, main results first:

Uptake in HEK-hOAT3 cells relative to HEK-pBK cells (hOAT3 [1]; pH 7.4): approximately 17.4 fold
Molecule: O=C(O)c1ccc(C(=O)O)c(-c2c3ccc(=O)cc-3oc3cc(O)ccc23)c1 [6‐CF, 6‐carboxyfluorescein]

Vd ([8]; febuxostat (+) 1 mg/kg i.v.): 0.433 ± 0.088 L/kg
half-life ([8]; febuxostat (+) 1 mg/kg i.v.): 14 ± 4.6 min
k el ([8]; febuxostat (+) 1 mg/kg i.v.): 0.000833 s⁻¹
AUC(0-t) ([8]; febuxostat (+) 1 mg/kg i.v.): 4350 ng·h/mL
clearance ([8]; febuxostat (+) 1 mg/kg i.v.): 8.02 ± 2.03 mL/min/kg
Vd ([8]; febuxostat (−)): 0.378 ± 0.061 L/kg
half-life ([8]; febuxostat (−)): 6.4 ± 1.4 min
k el ([8]; febuxostat (−)): 0.00183 s⁻¹
AUC(0-t) ([8]; febuxostat (−)): 2170 ng·h/mL
clearance ([8]; febuxostat (−)): 15.9 ± 3.56 mL/min/kg
Plasma concentration of methotrexate with concomitant febuxostat ([8]; methotrexate 2 mg/kg i.v. with febuxostat 1 mg/kg i.v. vs without, at 15, 30, 60 and 90 min): significantly increased
Uptake in HEK-hOAT3 cells compared with HEK-pBK cells (hOAT3 [9]): significantly higher
Molecule: CN(Cc1cnc2nc(N)nc(N)c2n1)c1ccc(C(=O)N[C@@H](CCC(=O)O)C(=O)O)cc1 [methotrexate]
excreted in urine as unchanged drug [10]: approximately 95%
share of renal basolateral uptake for which rOAT3 is responsible (rOAT3): approximately 50%
